What follows are compounds tested against T1, AXL (human catalytic domain) (Homo sapiens, UniProt P30530) (assay: AXL (human catalytic domain) Enzyme Activity Assay (IMAP fluorescence polarisation)). Details: further data set (WW-001 through WW-169, XX-001 through XX-469, YY-001 through YY-016, ZZ-001 through ZZ-003); 150 μM ATP.
T1 construct: purchased Upstate Ltd. 14-512
T1 sequence (P30530 473-894): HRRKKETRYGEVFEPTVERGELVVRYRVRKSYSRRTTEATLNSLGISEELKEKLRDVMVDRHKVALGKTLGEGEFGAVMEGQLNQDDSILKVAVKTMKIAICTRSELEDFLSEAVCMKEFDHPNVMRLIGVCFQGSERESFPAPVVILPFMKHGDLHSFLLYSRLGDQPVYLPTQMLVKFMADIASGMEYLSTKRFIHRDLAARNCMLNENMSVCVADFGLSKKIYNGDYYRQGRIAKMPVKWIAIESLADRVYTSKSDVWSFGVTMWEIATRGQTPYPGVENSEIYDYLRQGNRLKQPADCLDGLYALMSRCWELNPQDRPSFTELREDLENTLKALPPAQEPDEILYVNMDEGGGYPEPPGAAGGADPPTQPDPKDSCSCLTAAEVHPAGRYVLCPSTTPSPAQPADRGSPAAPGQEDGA
Type: biochemical
Summary of the method: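 IMAP FP readout (Ex485/Em535, after overnight binding) measured inhibition of the human AXL catalytic domain (aa473-894, 15 nM final) acting on 100 nM 5FAM-CSK-tide at 150 μM ATP, equal to KM. Reactions ran 60 min at room temperature in pH 7.0 HEPES buffer; IC50 from 10-point curves.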

SMILES	IC50
O=C(Nc1cccc(-c2cccc3nc(Nc4ccc(OCCN5CCCC5)cc4)nn23)c1)Nc1ccccc1Cl [XX-232]	1000 to 10000 nM
O=C(Nc1ccc(Cl)cc1)Nc1cccc(-c2cccc3nc(Nc4ccc(OCCN5CCCC5)cc4)nn23)c1 [XX-233]	1000 to 10000 nM
COc1ccc(-c2cccc3nc(Nc4ccc(OCCN5CCCC5)cc4)nn23)nc1 [XX-235]	100 to 1000 nM
CN(C)c1cccc(-c2cccc3nc(Nc4ccc(OCCN5CCCC5)cc4)nn23)c1 [XX-236]	100 to 1000 nM
OCc1ccc(-c2cccc3nc(Nc4ccc(OCCN5CCCC5)cc4)nn23)cc1 [XX-237]	100 to 1000 nM
Fc1ccccc1CNc1cccc(-c2cccc3nc(Nc4ccc(OCCN5CCCC5)cc4)nn23)c1 [XX-238]	100 to 1000 nM
CN(C)C(=O)c1ccc(-c2cccc3nc(Nc4ccc(OCCN5CCCC5)cc4)nn23)cc1 [XX-239]	1000 to 10000 nM
COc1ccc(-c2cccc3nc(Nc4ccc(OCCN5CCCC5)cc4)nn23)cc1F [XX-240]	100 to 1000 nM
CC(=O)Nc1cccc(-c2cccc3nc(Nc4ccc(OCCN5CCCC5)cc4)nn23)c1 [XX-241]	100 to 1000 nM
c1ccc2cc(-c3cccc4nc(Nc5ccc(OCCN6CCCC6)cc5)nn34)ccc2c1 [XX-242]	100 to 1000 nM
Oc1ccc(-c2cccc3nc(Nc4ccc(OCCN5CCCC5)cc4)nn23)cc1F [XX-243]	100 to 1000 nM
FC(F)(F)Oc1ccc(-c2cccc3nc(Nc4ccc(OCCN5CCCC5)cc4)nn23)cc1 [XX-244]	100 to 1000 nM
COc1ccc(-c2cccc3nc(Nc4ccc(OCCN5CCCC5)cc4)nn23)cc1OC [XX-245]	1000 to 10000 nM
COc1cc(-c2cccc3nc(Nc4ccc(OCCN5CCCC5)cc4)nn23)cc(OC)c1OC [XX-246]	1000 to 10000 nM
c1ccc(Oc2ccc(-c3cccc4nc(Nc5ccc(OCCN6CCCC6)cc5)nn34)cc2)cc1 [XX-247]	100 to 1000 nM
CC(c1ccc(-c2cccc3nc(Nc4ccc(OCCN5CCCC5)cc4)nn23)cc1)N(C)C (stereo not drawn) [XX-248]	100 to 1000 nM
O=C(Nc1ccc(-c2cccc3nc(Nc4ccc(OCCN5CCCC5)cc4)nn23)cc1)c1ccncc1 [XX-249]	100 to 1000 nM
O=C(Nc1ccc(-c2cccc3nc(Nc4ccc(OCCN5CCCC5)cc4)nn23)cc1)c1ccno1 [XX-250]	100 to 1000 nM
Cc1cc(C(=O)Nc2ccc(-c3cccc4nc(Nc5ccc(OCCN6CCCC6)cc5)nn34)cc2)on1 [XX-251]	100 to 1000 nM
c1ccc(CNc2ccc(-c3cccc4nc(Nc5ccc(OCCN6CCCC6)cc5)nn34)cc2)cc1 [XX-252]	100 to 1000 nM
CS(=O)(=O)Nc1ccc(-c2cccc3nc(Nc4ccc(OCCN5CCCC5)cc4)nn23)cc1 [XX-253]	100 to 1000 nM
COc1ccc(S(=O)(=O)Nc2ccc(-c3cccc4nc(Nc5ccc(OCCN6CCCC6)cc5)nn34)cc2)cc1 [XX-254, 4-Methoxy-N-(4-{2-[4-(2-pyrrolidin-1-yl-ethoxy)-phenylamino]-[1,2,4]triazolo[1,5-a]pyridin-5-yl}-phenyl)-benzenesulfonamide]	100 to 1000 nM
Nc1cccc(-c2cccc3nc(Nc4ccc(OCCN5CCCC5)cc4)nn23)c1 [XX-255, [5-(3-Amino-phenyl)-[1,2,4]triazolo[1,5-a]pyridin-2-yl]-[4-(2-pyrrolidin-1-yl-ethoxy)-phenyl]-amine]	100 to 1000 nM

SMILES	IC50
Oc1cccc(-c2cccc3nc(Nc4ccc(OCCN5CCCC5)cc4)nn23)c1 [XX-256, 3-{2-[4-(2-Pyrrolidin-1-yl-ethoxy)-phenylamino]-[1,2,4]triazolo[1,5-a]pyridin-5-yl}-phenol]	100 to 1000 nM
c1cc(NCc2ccco2)cc(-c2cccc3nc(Nc4ccc(OCCN5CCCC5)cc4)nn23)c1 [XX-257]	100 to 1000 nM
Cn1ccnc1CNc1cccc(-c2cccc3nc(Nc4ccc(OCCN5CCCC5)cc4)nn23)c1 [XX-258]	1000 to 10000 nM
Cn1cncc1CNc1cccc(-c2cccc3nc(Nc4ccc(OCCN5CCCC5)cc4)nn23)c1 [XX-259]	100 to 1000 nM
c1cc(NCc2cncs2)cc(-c2cccc3nc(Nc4ccc(OCCN5CCCC5)cc4)nn23)c1 [XX-260]	1000 to 10000 nM
c1cc(NCc2ncc[nH]2)cc(-c2cccc3nc(Nc4ccc(OCCN5CCCC5)cc4)nn23)c1 [XX-261]	100 to 1000 nM
Cc1cc(CNc2cccc(-c3cccc4nc(Nc5ccc(OCCN6CCCC6)cc5)nn34)c2)n(C)n1 [XX-262]	1000 to 10000 nM
Cc1nc(C)c(CNc2cccc(-c3cccc4nc(Nc5ccc(OCCN6CCCC6)cc5)nn34)c2)s1 [XX-263]	100 to 1000 nM
Fc1cccc(CNc2cccc(-c3cccc4nc(Nc5ccc(OCCN6CCCC6)cc5)nn34)c2)c1 [XX-264]	100 to 1000 nM
c1ccc(CCNc2ccc(-c3cccc4nc(Nc5ccc(OCCN6CCCC6)cc5)nn34)cc2)cc1 [XX-265]	1000 to 10000 nM
COc1ccc(CNc2ccc(-c3cccc4nc(Nc5ccc(OCCN6CCCC6)cc5)nn34)cc2)cc1 [XX-266]	100 to 1000 nM
Cc1ccc(CNc2ccc(-c3cccc4nc(Nc5ccc(OCCN6CCCC6)cc5)nn34)cc2)cc1 [XX-267]	100 to 1000 nM
c1cc(-c2ccc(NCc3ccoc3)cc2)n2nc(Nc3ccc(OCCN4CCCC4)cc3)nc2c1 [XX-268]	100 to 1000 nM
CNC(=O)c1ccc(-c2cccc3nc(Nc4ccc(OCCN5CCCC5)cc4)nn23)cc1 [XX-269]	1000 to 10000 nM
c1cc(-c2ccc(Cn3cccn3)cc2)n2nc(Nc3ccc(OCCN4CCCC4)cc3)nc2c1 [XX-270]	100 to 1000 nM
Cc1ccc(S(=O)(=O)Nc2ccc(-c3cccc4nc(Nc5ccc(OCCN6CCCC6)cc5)nn34)cc2)cc1 [XX-271]	100 to 1000 nM
c1cc(-c2cnn(CCN3CCOCC3)c2)n2nc(Nc3ccc(OCCN4CCCC4)cc3)nc2c1 [XX-272]	1000 to 10000 nM
FC(F)(F)c1cccc(Cn2cc(-c3cccc4nc(Nc5ccc(OCCN6CCCC6)cc5)nn34)cn2)c1 [XX-273]	100 to 1000 nM
CC(C)Cn1cc(-c2cccc3nc(Nc4ccc(OCCN5CCCC5)cc4)nn23)cn1 [XX-274]	1000 to 10000 nM
c1csc(Cn2cc(-c3cccc4nc(Nc5ccc(OCCN6CCCC6)cc5)nn34)cn2)c1 [XX-275]	100 to 1000 nM
CS(=O)(=O)n1cc(-c2cccc3nc(Nc4ccc(OCCN5CCCC5)cc4)nn23)cn1 [XX-276, [5-(1-Methanesulfonyl-1H-pyrazol-4-yl)-[1,2,4]triazolo[1,5-a]pyridin-2-yl]-[4-(2-pyrrolidin-1-yl-ethoxy)-phenyl]-amine]	100 to 1000 nM
CC(=O)Nc1ccc(S(=O)(=O)Nc2ccc(-c3cccc4nc(Nc5ccc(OCCN6CCCC6)cc5)nn34)cc2)cc1 [XX-277]	1000 to 10000 nM
c1ccc(COc2cccc(-c3cccc4nc(Nc5ccc(OCCN6CCCC6)cc5)nn34)c2)cc1 [XX-278]	100 to 1000 nM

SMILES	IC50
Cc1ccc(-c2cccc3nc(Nc4ccc(OCCN5CCCC5)cc4)nn23)cc1C [XX-279]	100 to 1000 nM
Cc1ccc(-c2cccc3nc(Nc4ccc(OCCN5CCCC5)cc4)nn23)cc1F [XX-280]	≤ 100 nM
c1cc(-c2ccc3[nH]ccc3c2)n2nc(Nc3ccc(OCCN4CCCC4)cc3)nc2c1 [XX-281]	1000 to 10000 nM
Fc1ccc(-c2cccc3nc(Nc4ccc(OCCN5CCCC5)cc4)nn23)cc1Cl [XX-282]	100 to 1000 nM
CS(=O)(=O)c1cccc(-c2cccc3nc(Nc4ccc(OCCN5CCCC5)cc4)nn23)c1 [XX-283]	100 to 1000 nM
CC(C)CS(=O)(=O)n1cc(-c2cccc3nc(Nc4ccc(OCCN5CCCC5)cc4)nn23)cn1 [XX-284]	100 to 1000 nM
O=S(=O)(c1cccc(Cl)c1)n1cc(-c2cccc3nc(Nc4ccc(OCCN5CCCC5)cc4)nn23)cn1 [XX-285]	100 to 1000 nM
Cc1cccc(CS(=O)(=O)n2cc(-c3cccc4nc(Nc5ccc(OCCN6CCCC6)cc5)nn34)cn2)c1 [XX-286]	100 to 1000 nM
O=S(=O)(Cc1cccc(C(F)(F)F)c1)n1cc(-c2cccc3nc(Nc4ccc(OCCN5CCCC5)cc4)nn23)cn1 [XX-287]	100 to 1000 nM
O=S(=O)(Cc1cccc(Cl)c1)n1cc(-c2cccc3nc(Nc4ccc(OCCN5CCCC5)cc4)nn23)cn1 [XX-288]	100 to 1000 nM
COc1cccc(CS(=O)(=O)n2cc(-c3cccc4nc(Nc5ccc(OCCN6CCCC6)cc5)nn34)cn2)c1 [XX-289]	100 to 1000 nM
Cc1cccc(Cn2cc(-c3cccc4nc(Nc5ccc(OCCN6CCCC6)cc5)nn34)cn2)c1 [XX-290]	≤ 100 nM
FC(F)(F)c1cc(-c2cccc3nc(Nc4ccc(OCCN5CCCC5)cc4)nn23)ccc1Cl [XX-291]	100 to 1000 nM
Cc1cc(C)cc(-c2cccc3nc(Nc4ccc(OCCN5CCCC5)cc4)nn23)c1 [XX-292]	100 to 1000 nM
c1ccc2oc(-c3cccc4nc(Nc5ccc(OCCN6CCCC6)cc5)nn34)cc2c1 [XX-293]	100 to 1000 nM
c1ccc2sc(-c3cccc4nc(Nc5ccc(OCCN6CCCC6)cc5)nn34)cc2c1 [XX-294]	100 to 1000 nM
Cc1ccc(CS(=O)(=O)n2cc(-c3cccc4nc(Nc5ccc(OCCN6CCCC6)cc5)nn34)cn2)cc1 [XX-295]	100 to 1000 nM
CCCCS(=O)(=O)n1cc(-c2cccc3nc(Nc4ccc(OCCN5CCCC5)cc4)nn23)cn1 [XX-296]	1000 to 10000 nM
Clc1ccc(-c2cccc3nc(Nc4ccc(OCCN5CCCC5)cc4)nn23)cc1Cl [XX-297]	100 to 1000 nM
Clc1cc(Cl)cc(-c2cccc3nc(Nc4ccc(OCCN5CCCC5)cc4)nn23)c1 [XX-298]	100 to 1000 nM
Clc1ccc(-c2cccc3nc(Nc4ccc(OCCN5CCCC5)cc4)nn23)s1 [XX-299]	100 to 1000 nM
CCN(CC)CCNc1cc(Nc2nc3cccc(-c4ccc(OC)cc4)n3n2)ccn1 [XX-300]	100 to 1000 nM
CCCCNC(=O)c1cccc(-c2cccc3nc(Nc4ccc(OCCN5CCCC5)cc4)nn23)c1 [XX-301]	1000 to 10000 nM
